According to US3987197A, “3-(2'-Fluoro-4-biphenylyl)-butyric acid and salts thereof” (Boehringer Ingelheim GmbH, priority 1972, dated 1976):

Legend:
[1] = test system: kaolin and carrageenin edema; experiment: antiexudative effect, average of kaolin and carrageenin edema tests; format: in vivo; settings: Rattus norvegicus, po; arithmetically averaged value from ED35 kaolin edema and ED35 carrageenin edema
Source text: *arithmetically averaged value from ED35 kaolin edema and ED35

[2] = test system: kaolin edema of the hind paws of the rat; experiment: kaolin edema of the hind paw of the rat, anti-exudative effect, oral; format: in vivo; settings: 5 h, male FW 49-rats, oral 30 minutes before edema, 35% reduction of swelling five hours after provocation, graphic extrapolation, read-out: kaolin edema ED35 per os
Description: (§1) The compounds were tested by standard test methods for their anti-exudativeeffects on the kaolin edema and carrageenin edema of the hind paws of the rat and for their acute toxicity by oral administration to rats.
The kaolin edema was induced according to the method of Hillebrecht [Arzneimitted-Forsch. 4, 607 (1954)] by subplantary injection of 0.05 ml of a 10% suspension of kaolin in a 0.85% sodium chloride solution. The measurement of the thickness of the paws was done by using the technique of Doepfner and Cerletti [Int. Arch. Allergy. Immunol. 12, 89 (1958)].
(§2) Male FW 49-rats of an average weight of 120-150 gm were orally treated with the test compounds 30 minutes before inducement of the edema with the aid of an esophageal tube. Five hours after the provocation of the edema the averaged values of the swelling caused in the paws of the rats treated with the compounds were compared with those values measured on blind-treated control animals. By graphic extrapolation the dose leading to a 35% reduction of the swelling (ED35) was calculated from the percent reduction values measured by administration of different doses.

[3] = in vivo; settings: rat, po
Description: The therapeutic index, as a measure for the therapeutic usefulness, was calculated by forming the quotient of the LD50 -value and the ED35 -value derived from the tests for anti-exudative activity against the kaolin and carrageenin edema.

[4] = acute toxicity in the rat, oral; settings: in vivo, male and female FW 49-rats (1:1), oral as trituration in tylose, 14 days, Litchfield and Wilcoxon, 95% confidence limits, read-out: acute toxicity in the rat LD50 per os
Description: as §1
After oral administration to male and female FW 49-rats (ratio 1:1) having an average body weight of 135 gm, the acute toxicity (LD50 ) was determined. The substances were administered orally as trituration in tylose.
The calculation of the LD50 -values was effected, as far as possible, according to the method of Litchfield and Wilcoxon, based on the percentage of animals which died within 14 days after administration of the different doses.

[5] = test system: carrageenin edema of the hind paws of the rat; experiment: carrageenin edema of the hind paw of the rat, anti-exudative effect, oral; format: in vivo; settings: 3 h, FW 49-rats, oral 60 minutes before edema, 35% reduction of swelling three hours after provocation, graphic extrapolation, read-out: carrageenin edema ED35 per os
Description: as §1, §2
The provocation of the carrageenin edema was effected according to the method of Winter et al [Proc. Soc. exp. Biol. Med. 111, 544 (1962)] by subplantary injection of 0.05 ml of a 1% solution of carrageenin in a 0.85% solution of sodium chloride. The test compounds were orally administered 60 minutes before the provocation of the edema.
For the calculation of the reductive effect on the edema the values measured three hours after the provocation of the edema were used. All the other details were the same as described above in the case of the kaolin edema.

CC(CC(=O)O)c1ccc(-c2ccccc2F)cc1 (racemic) [A, 3-(2'-fluoro-4-biphenylyl)-butyric acid]
ED35 [1]: 14.8 mg/kg | ED35 [2]: 19 mg/kg | selectivity ratio [3]: 36.5 | LD50 at 336 h [4]: 540 mg/kg | ED35 [5]: 10.5 mg/kg
